The term IC50 denotes the concentration needed to halve the response being measured.

Each structure is given as a SMILES string. Some results are limits rather than exact numbers.

HPK1, sequence (Q92918 whole entry): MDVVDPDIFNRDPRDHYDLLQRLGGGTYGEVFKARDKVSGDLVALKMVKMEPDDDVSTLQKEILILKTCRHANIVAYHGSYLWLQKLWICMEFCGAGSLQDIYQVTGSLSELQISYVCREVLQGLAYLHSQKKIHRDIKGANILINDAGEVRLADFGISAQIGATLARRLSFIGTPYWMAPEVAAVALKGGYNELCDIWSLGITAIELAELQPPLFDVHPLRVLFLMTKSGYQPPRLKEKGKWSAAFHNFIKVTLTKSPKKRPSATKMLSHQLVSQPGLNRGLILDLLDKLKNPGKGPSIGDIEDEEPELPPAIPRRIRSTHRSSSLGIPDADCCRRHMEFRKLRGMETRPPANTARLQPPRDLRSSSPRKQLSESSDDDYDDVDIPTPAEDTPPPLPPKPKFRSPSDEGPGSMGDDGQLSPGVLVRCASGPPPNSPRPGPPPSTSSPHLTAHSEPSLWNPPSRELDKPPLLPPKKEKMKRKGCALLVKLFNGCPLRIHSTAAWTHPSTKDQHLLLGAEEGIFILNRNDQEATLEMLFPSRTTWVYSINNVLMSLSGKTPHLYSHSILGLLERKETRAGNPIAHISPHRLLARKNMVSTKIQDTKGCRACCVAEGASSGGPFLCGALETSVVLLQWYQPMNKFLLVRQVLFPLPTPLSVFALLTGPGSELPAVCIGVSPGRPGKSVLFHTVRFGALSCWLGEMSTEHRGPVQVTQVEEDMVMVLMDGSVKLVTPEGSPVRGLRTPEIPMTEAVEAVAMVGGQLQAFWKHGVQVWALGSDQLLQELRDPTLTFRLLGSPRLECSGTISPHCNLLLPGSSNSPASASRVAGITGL

The experiment addresses HPK1 (Homo sapiens (Human), UniProt Q92918). Nature of the experiment: HPK1 biochemical enzyme assay (microfluidic mobility shift assay). Conditions: 1.5 nM HPK1, ATP 1 mM final, 30 min preincubation, 60 min at RT, Caliper EZ Reader; read-out: HPK1 1000UMATP caliper IC50. How it is done:
HPK1 biochemical enzyme assay: HPK1 enzyme inhibition was measured using a microfluidic mobility shift assay. […] Test compounds were titrated in ten point curves (top final assay concentration 3 μM), and preincubated with enzyme/substrate mix for 30 min prior to initiation of the reaction by addition of ATP (1 mM final concentration) and substrate (1 μM final concentration; Carna Biosciences) diluted in assay buffer supplemented by MgCl2 (final assay concentration of 5 mM). Following 60 min incubation at RT, the reaction was terminated by addition of 60 µl/well termination buffer (Carna Biosciences) and signal determination using aCaliper EZ Reader (Perkin Elmer, UK).
The compound numbers correspond to the compound numbers in Table 1.
For the molecule `CC(C)(O)[C@H]1CCCN(c2ccc(Nc3cnc(-c4cnn5c4CCCC5)c4c3C(=O)NC4)nc2)C1` [I-355, (S)-7-((5-(3-(2-hydroxy-propan-2-yl)piperidin-1-yl)pyridin-2-yl)amino)-4-(4,5,6,7-tetrahydropyra-zolo[1,5-a]pyridin-3-yl)-2,3-dihydro-1H-pyrrolo[3,4-c]pyridin-1-one], the half-maximal inhibitory concentration (IC50) was under 100 nM.

Consider `Cc1cnc2c(-c3ccc(Nc4ccc(N5CCN(C)CC5)cn4)c4c3CNC4=O)cnn2c1` [I-111, 7-[[5-(4-methylpiperazin-1-yl)-2-pyridyl]amino]-4-(6-methylpyrazolo[1,5-a]pyrimidin-3-yl)isoindolin-1-one], for which the half-maximal inhibitory concentration (IC50) was under 100 nM.

As to `CN1C[C@@H]2CCN(c3cccc(Nc4cnc(-c5ccnc6c5ccn6C)c5c4C(=O)NC5)n3)[C@@H]2C1` [I-630, 4-(1-methyl-1H-pyrrolo[2,3-b]pyridin-4-yl)-7-((6-((3aS, 6aS)-5-methylhexahy-dropyrrolo[3,4-b]pyrrol-1(2H)-yl)pyridin-2-yl)amino)-2,3-dihydro-1H-pyrrolo[3,4-c]pyridin-1-one], the 50% inhibitory concentration (IC50) was under 100 nM.

As for `Cn1ccc2c(-c3ncc(Nc4ccc(N5CC6CCC(C5)N6)cn4)c4c3CNC4=O)ccnc21` [I-262, 7-((5-(3,8-diazabicyclo [3.2.1]octan-3-yl)pyridin-2-yl)amino)-4-(1-methyl-1H-pyrrolo[2,3-b]pyridin-4-yl)-2,3-dihydro-1H-pyrrolo[3,4-c]pyridin-1-Fone], the concentration for half-maximal inhibition (IC50) is under 100 nM.

On to `O=C1NCc2c(-c3cnc4cnccn34)ncc(Nc3ccc(N4CCC(O)CC4)cn3)c21` [I-208, 7-[[5-(4-hydroxy-1-piperidyl)-2-pyridyl]-amino]-4-imidazo[1,2-a]pyrazin-3-yl-2,3-dihydropyrrolo [3,4-c]pyridin-1-one], for which the half-inhibitory concentration (IC50) is 100 to 1000 nM.

Turning to `O=C1NCc2c(-c3cnn4c3CCCC4)ccc(Nc3ccc(N4CCC[C@@]5(CCNC5=O)C4)cn3)c21` [I-445, (R)-7-(6-((3-oxo-7-(4,5,6,7-tetrahydropyra-zolo[1,5-a]pyridin-3-yl)isoindolin-4-yl)amino)pyri-din-3-yl)-2,7-diazaspiro[4.5] decan-1-one], the 50% inhibitory concentration (IC50) lay in the range of 100 to 1000 nM.

For `Cn1ccc2c(-c3ncc(Nc4cccc(N5C[C@H](N6CCC6)CC5=O)n4)c4c3CNC4=O)ccnc21` [I-724, (R)-7-((6-(4-(azetidin-1-yl)-2-oxopyrrolidin-1-yl)pyridin-2-yl)amino)-4-(1-methyl-1H-pyrrolo[2,3-b]pyridin-4-yl)-2,3-dihydro-1H-pyrrolo[3,4-c]pyridin-1-one], the IC50 was 100 to 1000 nM.

For the molecule `Cn1cnc2nccc(-c3ccc(Nc4ccc(N5CCNCC5)cn4)c4c3CNC4=O)c21` [I-114, 4-(1-methylimidazo [4,5-b]pyridin-7-yl)-7-[(5-piperazin-1-yl-2-pyridyl)amino] isoindolin-1-one], the IC50 is over 1000 nM.

Consider `CC(C)(O)[C@@H]1CCCN(c2ccc(Nc3cnc(-c4cnc5ccccn45)c4c3C(=O)NC4)nc2)C1` [I-220, 7-[[5-[(3R)-3-(1-hydroxy-1-methyl-ethyl)-1-piperidyl]-2-pyridyl]-amino]-4-imidazo[1,2-a]pyridin-3-yl-2,3-dihydropyrrolo [3,4-c]pyridin-1-one], for which the half-maximal inhibitory concentration (IC50) is under 100 nM.

Turning to `CN(C)Cc1nc(Nc2ccc(-c3cnc4cc(C(F)F)ccn34)c3c2C(=O)NC3)ccc1C1CCOC1` (stereo in doubt) [I-753, (R)-4-(7-(difluoromethyl)-imidazo[1,2-a]pyridin-3-yl)-7-((6-((dimethylamino)-methyl)-5-(tetrahydrofuran-3-yl)pyridin-2-yl)amino)isoin-dolin-1-one], the IC50 is under 100 nM.

For `CN1CCN(CC2(O)CCN(c3ccc(Nc4ccc(-c5cnc6cc(F)ccn56)c5c4C(=O)NC5)nc3)CC2)CC1` [I-365, 4-(7-fluoroimidazo [1,2-a]pyridin-3-yl)-7-((5-(4-hydroxy-4-((4-methylpiperazin-1-yl)methyl)pip-eridin-1-yl)pyridin-2-yl)amino)isoin-dolin-1-one], the IC50 is under 100 nM.

Turning to `COc1cccc2c(-c3ncc(Nc4ccc(N5CCN(C)CC5)cn4)c4c3CNC4=O)c[nH]c12` [I-7, 4-(7-methoxy-1H-indol-3-yl-)-7-[[5-(4-methylpiperazin-1-yl)-2-pyridyl]amino]-2,3-dihydropyrrolo [3,4-c]pyridin-1-one], the concentration for half-maximal inhibition (IC50) lay within 100 to 1000 nM.

For the molecule `Cn1ccc2c(-c3ccc(Nc4ccc(C5CCOC5)cn4)c4c3CNC4=O)ccnc21` (stereo not drawn) [I-108, 4-(1-methylpyrrolo [2,3-b]pyridin-4-yl)-7-[(5-THF-3-yl-2-pyridyl)amino] isoindolin-1-one], the half-maximal inhibitory concentration (IC50) was under 100 nM.

On to `CC(C)(O)[C@@H]1CN(c2ccc(Nc3ccc(-c4cnc5cccnn45)c4c3C(=O)NC4)nc2)CCO1` [I-474, 7-[[5-[(2S)-2-(1-hydroxy-1-methyl-ethyl)morpholin-4-yl]-2-pyridyl]amino]4-imidazo[1,2-b]pyridazin-3-yl-isoindolin-1-one], for which the IC50 was under 100 nM.

As for `Cc1cc2c(-c3ncc(Nc4ccc(N5CCC[C@@H](C(C)(C)O)C5)cn4)c4c3CNC4=O)ccnc2n1C` [I-237, 4-[1,2-dimethylpyrrolo [2,3-b]pyridin-4-yl)-7-[[5-[(3R)-3-(1-hydroxy-1-methyl-ethyl)-1-piperidyl]-2-pyridyl]amino]-2,3-dihydropyrrolo [3,4-c]pyridin-1-one], the IC50 fell in the range of 100 to 1000 nM.

For `CN(C)C[C@@H]1CN(c2ccc(Nc3ccc(-c4cnc5cc(Cl)ccn45)c4c3C(=O)NC4)nc2)CCO1` [I-593, (R)-4-(7-chloroimidazo [1,2-a]pyridin-3-yl)-7-((5-(2-((dimethylamino)-methyl)mor-pholino)pyridin-2-yl)amino)isoin-dolin-1-one], the IC50 is under 100 nM.

Turning to `C[C@H](O)C1CCN(c2ccc(Nc3ccc(-c4cnc5cc(F)ccn45)c4c3C(=O)NC4)nc2)CC1` [I-214, 4-(7-fluoroimidazo [1,2-a]pyridin-3-yl)-7-[[5-[4-[(1S)-1-hydroxyethyl]-l-piperidyl]-2-pyridyl]amino] isoindolin-1-one], the IC50 was under 100 nM.

`O=C1NCc2c(-c3cnc4cccnn34)ncc(Nc3ccc(N4CCC(O)CC4)cn3)c21` [I-199, 7-[[5-(4-hydroxy-1-piperidyl)-2-pyripyl]amino]-4-imidazo[1,2-b]pyridazin-3-yl-2,3-dihydropyrrolo [3,4-c]pyridin-1-one]: the IC50 lay within 100 to 1000 nM.

As to `CN1CCN(c2ccc(Nc3cnc(-c4cnc5ccccn45)c4c3C(=O)NC4)nc2)CC1` [I-56, 4-(Imidazo[1,2-a]pyridin-3-yl)-7-((5-(4-methylpiperazin-1-yl)pyridin-2-yl)amino)-2,3-dihydro-1H-pyrrolo[3,4-c]pyridin-1-one], the half-maximal inhibitory concentration (IC50) was under 100 nM.

In the case of `CN(C)CCN1CCC(c2ccc(Nc3cnc(-c4ccnc5c4ccn5C)c4c3C(=O)NC4)nc2)CC1=O` (stereo not drawn) [I-386, 7-((5-(1-(2-(dimethylami-no)ethyl)-2-oxopiperidin-4-yl)pyridin-2-yl)amino)-4-(1-methyl-1H-pyrrolo[2,3-b]pyridin-4-yl)-2,3-dihydro-1H-pyrrolo[3,4-c]pyridin-1-one], the half-maximal inhibitory concentration (IC50) is under 100 nM.

Turning to `Cn1ccc2c(-c3ncc(Nc4ccnc(N5CC[C@@H]6CNC[C@@H]65)n4)c4c3CNC4=O)ccnc21` [I-685, 7-((2-((3aR,6aR)-hexahydro-pyrrolo[3,4-b]pyrrol-1(2H)-yl)pyrimidin-4-yl)amino)-4-(1-methyl-1H-pyrrolo[2,3-b]pyridin-4-yl)-2,3-dihydro-1H-pyrrolo[3,4-c]pyridin-1-one], the IC50 fell in the range of 100 to 1000 nM.
